Source: patent US5274098A, “Amidinophenylalanine derivatives, process for their preparation, their use and compositions containing them” (Behringwerke Aktiengesellschaft, priority 1991, dated 1993)
pIC50, pKi: −log10 of the molar value.

Assays:
[1] = test system: thrombin; conditions: cited from earlier work
[2] = target: T1, human thrombin (Homo sapiens, UniProt P00734); assay: KI value for thrombin (Lineweaver and Burk, Chromozym TH); assay type: biochemical; conditions: inhibitor conc. approx. IC50, Chromozym TH 0.7-45×10^-5 mol/l, read-out: Thrombin inhibition KI
T1 construct: human thrombin
Protocol: Determination of the KI value for thrombin:
The KI values for the compounds investigated were determined using the abovementioned thrombin solution. To do this, thrombin was incubated with a concentration of inhibitor which approximately corresponded to the IC50 value determined in the abovementioned test.

[3] = target: T1, human thrombin; assay: IC50 value of the thrombin inhibition (Chromozym TH, pNA release at 405 nm); assay type: biochemical; conditions: 0.1M tris-HCl/0.15 M NaCl pH 8.2, 1 h preincubation, substrate Chromozym TH 5×10^-5 M
Protocol: Determination of the IC50 value of the thrombin inhibition:
The compounds were incubated with human thrombin in 0.1M tris-HCl buffer/0.15 M NaCl pH 8.2 in increasing concentrations.

[4] = test system: thrombin; assay: Activity with respect to inhibition of thrombin / antithrombotic activity, general statements; assay type: biochemical; conditions: relative to the glycine compound
Text: The inhibitors according to the invention are examined according to various criteria to assess their activity, preferably these are the determination of the Ki value, the IC50 value or the partial thromboplastin time (PTT) in vivo and in vitro.

pKi [2] | pIC50 [3] | SMILES | type of thrombin inhibition (prior art, in words) [1] | exceeds the activity of the glycine compound by a factor [4]
 |  | CC1CNc2c(cccc2S(=O)(=O)N[C@@H](CCCNC(=N)N)C(=O)N2CC[C@@H](C)C[C@@H]2C(=O)O)C1 (stereo partly shown) [MD 805, monohydrate] | competitive specific thrombin inhibitor | 
8.89 | 8.85 | Cc1c(C)c(S(=O)(=O)NCC(=O)NC(Cc2ccc(C(=N)N)cc2)C(=O)N2CCCCC2)c(C)c2c1OC(C)(C)CC2 (stereo not shown) [Pmc--Gly--Aph--Pip, reference compound] |  | 
10.04 |  | Cc1c(C)c(S(=O)(=O)NNC(=O)N[C@H](Cc2ccc(C(=N)N)cc2)C(=O)N2CCCCC2)c(C)c2c1OC(C)(C)CC2 [Pmc--AGly--Aph--Pip, Pmc-Azaglycyl-D-p-amidinophenylalanylpiperidide] |  | 
8.59 | 8.89 | N=C(N)c1ccc(C[C@@H](NC(=O)NNS(=O)(=O)c2ccc3ccccc3c2)C(=O)N2CCCCC2)cc1 [Nas--AGly--Aph--Pip, Beta-naphthylsulfonyl-azaglycyl-D-p-amidinophenylalanylpiperidide] |  | 5
